“And” between values parts separate entries of the source, which are not always exact repeats. Equal entries are not always repeated. Inconclusive results and toxic doses are left out.

The subject of the assay is CD2F1 mice, L1210 leukemia ip, survival T/C. The assay is described as follows: NCI In Vivo Anticancer Drug Screen. Data for tumor model L1210 Leukemia (intraperitoneal) in CD2F1 (CDF1) mice. The settings on record: endpoint: mean survival time, higher = longer survival. The procedure, abridged: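 Read-out first: treated-group measurement over vehicle-control measurement, expressed as a ratio. Animals bore a transplanted tumor line and were dosed with compound or vehicle.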

The mark [1] stands for this setting: dose: 100.0 mg/kg/injection, schedule: Q01DX001 (ip), vehicle: saline with Tween-80.
Setting [2] is: dose: 100.0 mg/kg/injection, schedule: Q01DX009 (ip), vehicle: saline with Tween-80.
Setting [3] is: dose: 100.0 mg/kg/injection, schedule: Q04DX003 (ip), vehicle: saline with Tween-80.
Where [4] appears, read: dose: 200.0 mg/kg/injection, schedule: Q01DX009 (ip), vehicle: saline with Tween-80.
[5] abbreviates: dose: 200.0 mg/kg/injection, schedule: Q04DX003 (ip), vehicle: saline with Tween-80.
Where [6] appears, read: dose: 25.0 mg/kg/injection, schedule: Q01DX009 (ip), vehicle: saline.
The mark [7] stands for this setting: dose: 50.0 mg/kg/injection, schedule: Q01DX009 (ip), vehicle: saline.
The mark [8] stands for this setting: dose: 100.0 mg/kg/injection, schedule: Q04DX003 (ip), vehicle: saline.
Where [9] appears, read: dose: 400.0 mg/kg/injection, schedule: Q01DX009 (ip), vehicle: saline with Tween-80.

In the case of `O=C(O)CSC1=NCCN1` (tested in a mixture with another compound), the T/C is, setting by setting: (dose: 100.0 mg/kg/injection, schedule: Q01DX001 (ip), vehicle: saline) 90 % of control; (dose: 200.0 mg/kg/injection, schedule: Q01DX001 (ip), vehicle: saline) 93 % of control; (dose: 400.0 mg/kg/injection, schedule: Q01DX001 (ip), vehicle: saline) 93 % of control.
Turning to `O=c1cc(NCCCCOc2ccccc2)[nH]c(=O)[nH]1`, the T/C is 96 % of control under setting [1]; 93 % of control (dose: 200.0 mg/kg/injection, schedule: Q01DX001 (ip), vehicle: saline with Tween-80); 96 % of control (dose: 400.0 mg/kg/injection, schedule: Q01DX001 (ip), vehicle: saline with Tween-80).
For `CC(C)(O)CCNc1ncnc2c1ncn2C1OC(CO)C(O)C1O` (stereo unspecified), the T/C by setting is: (dose: 12.5 mg/kg/injection, schedule: Q01DX005 (ip), vehicle: water) 101 % of control; (dose: 25.0 mg/kg/injection, schedule: Q01DX005 (ip), vehicle: water) 95 % of control and 103 % of control; (dose: 50.0 mg/kg/injection, schedule: Q01DX005 (ip), vehicle: water) 124 % of control and 103 % of control; (dose: 100.0 mg/kg/injection, schedule: Q01DX005 (ip), vehicle: water) 108 % of control.
Turning to `CC(C)C(=NO)C(C)C`, the T/C is 98 % of control under setting [2]; 101 % of control under setting [3]; 93 % of control under setting [4]; 93 % of control under setting [5]; 91 % of control (dose: 400.0 mg/kg/injection, schedule: Q04DX003 (ip), vehicle: saline with Tween-80).
For `Cc1c(-c2ccc(Cl)cc2)nc2cc(Cl)ccc2c1C(=O)O`, the T/C (dose: 100.0 mg/kg/injection, schedule: Q04DX002 (ip), vehicle: saline) was 92 % of control; the T/C (dose: 200.0 mg/kg/injection, schedule: Q04DX002 (ip), vehicle: saline) was 88 % of control; the T/C (dose: 400.0 mg/kg/injection, schedule: Q04DX002 (ip), vehicle: saline) is 98 % of control.
For `CN(C)c1ccc(/C=C/c2nc(N)nc(N)c2[N+](=O)[O-])cc1`, the T/C by setting is: (dose: 25.0 mg/kg/injection, schedule: Q01DX009 (ip), vehicle: water) 98 % of control; (dose: 50.0 mg/kg/injection, schedule: Q01DX009 (ip), vehicle: water) 97 % of control; (dose: 100.0 mg/kg/injection, schedule: Q01DX009 (ip), vehicle: water) 97 % of control; (dose: 200.0 mg/kg/injection, schedule: Q01DX009 (ip), vehicle: water) 92 % of control; (dose: 400.0 mg/kg/injection, schedule: Q01DX009 (ip), vehicle: water) 90 % of control.
As for `CC(N)C12CC3CC(CC(C3)C1)C2` (stereo unspecified), the T/C runs as follows: under setting [6], 117 % of control; under setting [7], 98 % of control; (dose: 100.0 mg/kg/injection, schedule: Q01DX009 (ip), vehicle: saline) 95 % of control.
For `CC(C)C(C)CCC(C)C1CCC2C3CC=C4CC(O)CCC4(C)C3CCC12C` (stereo unspecified), the T/C was 91 % of control (dose: 25.0 mg/kg/injection, schedule: Q01DX001 (ip), vehicle: saline with Tween-80); 94 % of control (dose: 50.0 mg/kg/injection, schedule: Q01DX001 (ip), vehicle: saline with Tween-80); 97 % of control under setting [1].
As to `NC(=S)/C(N)=N/Nc1ccc(Cl)cc1`, the T/C reads like this: (dose: 0.39 mg/kg/injection, schedule: Q01DX009 (ip), vehicle: saline) 101 % of control; (dose: 0.78 mg/kg/injection, schedule: Q01DX009 (ip), vehicle: saline) 104 % of control; (dose: 1.56 mg/kg/injection, schedule: Q01DX009 (ip), vehicle: saline) 108 % of control; (dose: 3.12 mg/kg/injection, schedule: Q01DX009 (ip), vehicle: saline) 107 % of control; (dose: 6.25 mg/kg/injection, schedule: Q01DX009 (ip), vehicle: saline) 96 % of control and 110 % of control; (dose: 12.5 mg/kg/injection, schedule: Q01DX009 (ip), vehicle: saline) 113 % of control and 93 % of control. Also, the T/C under setting [6] is 100 % of control and the T/C under setting [7] was 100 % of control.
Consider `C[n+]1cccc(C(=O)N/N=C/c2ccco2)c1`, for which the T/C is 105 % of control under setting [8]; 98 % of control (dose: 200.0 mg/kg/injection, schedule: Q04DX003 (ip), vehicle: saline); 104 % of control (dose: 400.0 mg/kg/injection, schedule: Q04DX003 (ip), vehicle: saline).
Regarding `Cc1[nH]c(=S)[nH]c(=O)c1CC(C)O` (stereo unspecified), the T/C is, setting by setting: under setting [2], 97 % of control; under setting [4], 90 % of control; under setting [9], 98 % of control.
In the case of `COC1OC(COC(C)=O)C(OC(C)=O)C(NC(=O)N(CCCl)N=O)C1OC(C)=O` (stereo unspecified), the T/C reads like this: (dose: 13.0 mg/kg/injection, schedule: Q01DX001 (ip), vehicle: saline with Tween-80) 240 % of control; (dose: 20.0 mg/kg/injection, schedule: Q01DX001 (ip), vehicle: saline with Tween-80) 469 % of control; (dose: 30.0 mg/kg/injection, schedule: Q01DX001 (ip), vehicle: saline with Tween-80) 535 % of control; (dose: 44.0 mg/kg/injection, schedule: Q01DX001 (ip), vehicle: saline with Tween-80) 459 % of control; (dose: 67.0 mg/kg/injection, schedule: Q01DX001 (ip), vehicle: saline with Tween-80) 245 % of control.
Regarding `O=S(=O)(O)O.[N-]=C(N)/N=C(\[NH-])N.[N-]=C(N)/N=C(\[NH-])N.[N-]=C(N)NC(=[N-])N.[Rh+3]`, the T/C is 96 % of control (dose: 25.0 mg/kg/injection, schedule: Q04DX003 (ip), vehicle: saline) and 100 % of control under setting [8].
On to `CO[C@H]1[C@H](O)[C@H](O[C@H]2CC[C@@]3(C)[C@H](CC[C@@H]4[C@@H]3CC[C@]3(C)[C@@H](C5=CC(=O)OC5)CC[C@]43O)C2)O[C@@H](C)[C@@H]1O`, for which the T/C by setting is: (dose: 0.5 mg/kg/injection, schedule: Q01DX001 (ip), vehicle: saline) 105 % of control; (dose: 1.0 mg/kg/injection, schedule: Q01DX001 (ip), vehicle: saline) 105 % of control; (dose: 2.0 mg/kg/injection, schedule: Q01DX001 (ip), vehicle: saline) 108 % of control; (dose: 4.0 mg/kg/injection, schedule: Q01DX001 (ip), vehicle: saline) 109 % of control.
For the compound `O=C(Nc1ccc(Cl)c(Cl)c1)c1cc(Cl)ccc1O`, the T/C was 102 % of control under setting [2], 100 % of control under setting [4] and 105 % of control under setting [9].
`COc1ccc2c(O)c3[n+](cc2c1OC)CCc1cc2c(cc1-3)OCO2`: the T/C by setting is: (dose: 75.0 mg/kg/injection, schedule: Q01DX001 (ip), vehicle: other) 100 % of control; (dose: 150.0 mg/kg/injection, schedule: Q01DX001 (ip), vehicle: other) 87 % of control; (dose: 300.0 mg/kg/injection, schedule: Q01DX001 (ip), vehicle: other) 100 % of control.
For `CCOC(=O)/C(C#N)=C/NC(N)=O`, the T/C was 100 % of control (dose: 50.0 mg/kg/injection, schedule: Q01DX001 (ip), vehicle: Klucel (hydroxypropylcellulose) (HPC)); 91 % of control and 92 % of control (dose: 100.0 mg/kg/injection, schedule: Q01DX001 (ip), vehicle: Klucel (hydroxypropylcellulose) (HPC)); 103 % of control (dose: 200.0 mg/kg/injection, schedule: Q01DX001 (ip), vehicle: Klucel (hydroxypropylcellulose) (HPC)); 88 % of control (dose: 400.0 mg/kg/injection, schedule: Q01DX001 (ip), vehicle: Klucel (hydroxypropylcellulose) (HPC)).
For `CC(C)CNC(=O)c1ccc(N=NN(C)Cc2ccncc2)cc1`, the T/C is, setting by setting: (dose: 50.0 mg/kg/injection, schedule: Q01DX009 (ip), vehicle: saline with Tween-80) 104 % of control; under setting [2], 122 % of control; under setting [3], 105 % of control; under setting [5], 117 % of control.
On to `CC1(C)CCSC(/C=C/c2ccccc2)=N1`, for which the T/C is 101 % of control (dose: 100.0 mg/kg/injection, schedule: Q01DX009 (ip), vehicle: other); 117 % of control (dose: 200.0 mg/kg/injection, schedule: Q01DX009 (ip), vehicle: other); 109 % of control (dose: 400.0 mg/kg/injection, schedule: Q01DX009 (ip), vehicle: other).

For the origin of these results see PubChem BioAssay AID256 (DTP/NCI, 2004).
